We go through eight compounds from US6504057B2, “Fluorophenyl-substituted alkenylcarboxylic acid guanidides, process for their preparation, their use as a medicament or diagnostic, and medicament containing them” (Hoechst Aktiengesellschaft, priority 1995, dated 2003).

Where a name gives a salt, the structure may show the parent alone.

For one data set, the system named is rat heart. Conditions: isolated rat heart; cited from earlier work.
In the case of `N=C(N)NC(=O)c1nc(Cl)c(N)nc1N` [amiloride], the “suppression of artificially produced ventricular fibrillation” value is listed as “completely suppressed”.

For `CCN(c1nc(N)c(C(=O)NC(=N)N)nc1Cl)C(C)C` [ethylisopropylamiloride], the “suppression of artificially produced ventricular fibrillation” value is on record as “even more potent than amiloride”.

Test system in another data set: not given
Settings: not given
On to `NC(N)=NC(=O)/C=C/c1cccc(F)c1` (as salt: hydrochloride) [Example 1, E-3-(3-Fluorophenyl)acrylic acid guanidide hydrochloride], for which the melting point – broadly, the temperature, or range, at which the solid turns liquid – is 148 °C.

`NC(N)=NC(=O)/C=C/c1cc(F)ccc1F` (as salt: hydrochloride) [Example 2, E-3-(2,5-Difluorophenyl)acrylic acid guanidide hydrochloride] yielded a melting point of 230 °C.

The compound `NC(N)=NC(=O)/C=C/c1cc(F)cc(F)c1` (as salt: hydrochloride) [Example 3, E-3-(3,5-Difluorophenyl) acrylic acid guanidide hydrochloride] gave a melting point of 235 °C.

For `NC(N)=NC(=O)/C=C/c1ccccc1F` (as salt: hydrochloride) [Example 4, E-3-(2-Fluorophenyl)acrylic acid guanidide hydrochloride], the melting point was 243 °C.

The compound `C/C(=C\c1cc(F)cc(F)c1)C(=O)N=C(N)N` (as salt: hydrochloride) [Example 5, E-3-(3,5-Difluorophenyl)-2-methylacrylic acid guanidide hydrochloride] registered a melting point of 178 °C.

In turn, `C/C(=C\c1c(F)c(F)cc(F)c1F)C(=O)N=C(N)N` (as salt: hydrochloride) [Example 9, E-3-(2,3,5,6-Tetrafluorophenyl)-2-methylacrylic acid guanidide hydrochloride] returned a melting point of 138 °C.
